Like-named read-outs stand apart in the source and are kept apart here.
Tests used:
SKOV-3 (ATCC HTB-77) = assay: SKOV-3 EdU incorporation cell proliferation assay (CDK4/6-dependent); type: cell-based; conditions: Homo sapiens, cellular assay, read-out: CDK4/6 SKOV-3 IC50
Outline: (§1)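 EdU incorporation (0.5 μM final, last 8 h) follows a 16 h compound exposure at 37 °C, 5% CO2 in RPMI plus 10% FBS, 0.5% DMSO. After fixation, imaging scores EdU-positive cells; a 4-parameter logistic fit of that fraction gives IC50.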

[1] = molecular target: T1, Cyclin Dependent Kinase 1/Cyclin A2 (CDK1-cycA2) (Homo sapiens, UniProt P06493); assay: CDK1-cycA2 TR-FRET (Lance) enzyme assay; type: biochemical; conditions: Table O, enzymatic assay
T1 construct: purchased ProQinase 0134-0054-1
Outline: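 TR-FRET (Lance) detection of phospho-4E-BP1 with a europium-labelled antibody after EDTA quench (15 mM final); signal taken as acceptor/donor ratio. Enzyme and compound were pre-incubated 30 min in HEPES pH 7.5 buffer with MgCl2, TCEP, BGG and Brij 35. Ki derived by Morrison fit.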

[2] = molecular target: T2, Cyclin Dependent Kinase 4/Cyclin D3 (CDK4-cycD3) (Homo sapiens, UniProt P11802); assay: CDK4-cycD3 TR-FRET (LANCE) enzyme assay; type: biochemical; conditions: Table O, enzymatic assay
T2 construct: purchased Carna Biosciences 04-105
Outline: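 Compound dose responses pre-incubated 30 min with enzyme mix in 50 mM HEPES pH 7.5, 10 mM MgCl2, 2 mM TCEP, 0.05% BGG, 0.01% Brij 35. Reaction quenched with EDTA (15 mM final); Eu-anti-phospho-4E-BP1 TR-FRET detection, acceptor/donor ratio. Ki derived by Morrison equation.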

[3] = tested on: OVISE (JCRB1043, CCNE1-amplified); assay: OVISE EdU incorporation cell proliferation assay (CDK2-dependent); type: cell-based; conditions: for IC50: cellular assay, read-out: CDK2 OVISE IC50; for FS SKOV-3/OVISE / FS p-H3/OVISE: fold selectivity; for FS p-H3/OVISE: cellular p-H3 IC50 over OVISE IC50; for increased fold-selectivity SKOV-3/OVISE over Comparator C: (+) sign after FS SKOV-3/OVISE; for improvement in CDK2 OVISE cell potency over Comparator C: in brackets after OVISE IC50, Comparator C 5.5 μM
Outline: as §1

HCT116 cells = assay: p-H3 HCT-116 mitotic release cell proliferation assay (cellular CDK1); type: cell-based; conditions: Homo sapiens, HCT-116; Table O, cellular assay; read-out: CDK1 p-H3 IC50
Outline: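 Phospho-Histone H3 (Ser10) in lysates was quantified by a two-antibody HTRF FRET read (≥2 h, room temperature). Before this, HCT116 cells held in mitosis by 16 h of 500 nM nocodazole were treated with compound for 4 h at 37 °C, 0.1% DMSO.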

[4] = molecular target: T3, Cyclin Dependent Kinase 2/Cyclin E1 (CDK2-cycE1) (Homo sapiens, UniProt P24941); assay: CDK2-cycE1 TR-FRET (LANCE) enzyme assay; type: biochemical; conditions: for FS CDK1/CDK2 / FS CDK4/CDK2: fold selectivity; for increased fold-selectivity CDK4/CDK2 over Comparator C: (+) sign after FS CDK4/CDK2; for increased fold-selectivity CDK1/CDK2 over Comparator C: (+) sign after FS CDK1/CDK2;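 as to improvement in potency against CDK2 (Ki) over Comparator C: fold lower CDK2 Ki than comparator c (Ki 0.032 µM)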
T3 construct: purchased ProQinase 0050-0055-1
Outline: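 Kinase reaction buffer: 50 mM HEPES pH 7.5, 10 mM MgCl2, 2 mM TCEP, 0.05% BGG, 0.01% Brij 35, with 30 min compound–enzyme pre-incubation.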

[5] = Table O, cellular SKOV-3 IC50 over OVISE IC50
[6] = Table O, enzymatic assay, read-out: CDK2 Ki
[7] = Table O, enzymatic CDK1 Ki over CDK2 Ki
[8] = Table O, enzymatic CDK4 Ki over CDK2 Ki
[9] = Table Q, enzymatic assay, read-out: CDK2 Ki
[10] = read-out: CDK2 activity / potency (enzymatic assay)

T1 sequence (P06493 whole entry): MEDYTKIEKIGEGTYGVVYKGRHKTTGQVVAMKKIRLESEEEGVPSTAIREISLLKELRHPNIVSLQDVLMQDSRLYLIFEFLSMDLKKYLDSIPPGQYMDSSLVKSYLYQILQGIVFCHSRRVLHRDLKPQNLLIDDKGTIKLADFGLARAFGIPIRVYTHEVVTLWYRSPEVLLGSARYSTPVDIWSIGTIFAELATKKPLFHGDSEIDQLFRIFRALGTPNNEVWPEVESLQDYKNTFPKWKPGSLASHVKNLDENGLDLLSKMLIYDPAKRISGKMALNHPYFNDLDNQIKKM
T1 sequence (P20248 whole entry partner): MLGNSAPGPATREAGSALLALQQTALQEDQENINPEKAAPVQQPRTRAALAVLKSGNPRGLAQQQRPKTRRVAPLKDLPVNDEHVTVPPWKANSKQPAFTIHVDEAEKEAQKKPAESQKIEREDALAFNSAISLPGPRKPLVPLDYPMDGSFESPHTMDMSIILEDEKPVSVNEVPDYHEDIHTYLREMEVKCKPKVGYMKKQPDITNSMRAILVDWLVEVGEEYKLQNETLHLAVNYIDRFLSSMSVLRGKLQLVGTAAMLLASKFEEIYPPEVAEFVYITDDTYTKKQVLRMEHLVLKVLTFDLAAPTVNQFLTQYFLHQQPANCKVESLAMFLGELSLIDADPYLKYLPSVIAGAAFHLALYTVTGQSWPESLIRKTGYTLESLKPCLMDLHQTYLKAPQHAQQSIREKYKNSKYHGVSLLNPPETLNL
T2 sequence (P11802 whole entry): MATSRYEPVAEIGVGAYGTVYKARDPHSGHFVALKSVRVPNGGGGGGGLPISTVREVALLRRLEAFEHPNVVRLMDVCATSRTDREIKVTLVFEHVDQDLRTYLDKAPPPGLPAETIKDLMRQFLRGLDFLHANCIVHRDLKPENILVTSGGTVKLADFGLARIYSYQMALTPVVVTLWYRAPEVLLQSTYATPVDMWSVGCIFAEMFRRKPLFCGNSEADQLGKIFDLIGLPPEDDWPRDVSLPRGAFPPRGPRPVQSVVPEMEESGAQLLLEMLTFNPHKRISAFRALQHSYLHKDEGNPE
T2 sequence (P30281 whole entry partner): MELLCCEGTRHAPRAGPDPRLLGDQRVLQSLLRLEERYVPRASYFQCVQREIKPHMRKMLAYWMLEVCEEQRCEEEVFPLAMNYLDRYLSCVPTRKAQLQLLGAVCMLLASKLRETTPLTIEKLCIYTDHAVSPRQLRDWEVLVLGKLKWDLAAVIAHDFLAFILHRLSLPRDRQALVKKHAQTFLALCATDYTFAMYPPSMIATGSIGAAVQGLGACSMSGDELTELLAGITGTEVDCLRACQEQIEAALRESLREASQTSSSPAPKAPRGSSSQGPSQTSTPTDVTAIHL

Compound	IC50 (SKOV-3 (ATCC HTB-77); SK-OV-3, Table O)	IC50 (SKOV-3 (ATCC HTB-77); SK-OV-3, Table Q)	Ki [1]	Ki [2]	IC50 ([3]; Table O)	FS SKOV-3/OVISE [3, 5]	FS p-H3/OVISE ([3]; Table O)	increased fold-selectivity SKOV-3/OVISE over Comparator C ([3]; Table Q)	FS SKOV-3/OVISE ([3]; Table Q, cellular)	improvement in CDK2 OVISE cell potency over Comparator C ([3]; Table Q)	IC50 (HCT116 cells)	improvement in potency against CDK2 (Ki) over Comparator C [4]	Ki [4, 6]	FS CDK1/CDK2 [4, 7]	FS CDK4/CDK2 [4, 8]	increased fold-selectivity CDK4/CDK2 over Comparator C ([4]; Table Q)	Ki [4, 9]	FS CDK1/CDK2 ([4]; Table Q, enzymatic)	FS CDK4/CDK2 ([4]; Table Q, enzymatic)	Ki [4, 10]	also measured
Cc1cncc(Nc2cc([C@H]3CC[C@@H](OC(=O)NC(C)C)C3)[nH]n2)n1 [Example 2M, (1R,3S)-3-(3-((6-methylpyrazin-2-y1)amino)-1H-pyrazol-5-yl)cyclopentyl isopropylcarbamate]	580 nM	580 nM	6.3 nM	28 nM	20 nM	29	0.35	(+) (The (+) sign in Table Q signifies desirable increased fold-selectivity of the exemplary compounds over Comparator C)	29	275 fold	7 nM	123 fold	0.26 nM	24	110	(+) (The (+) sign in Table Q signifies desirable increased fold-selectivity of the exemplary compounds over Comparator C)	0.26 nM	24	110	–	–
COc1cncc(Nc2cc([C@H]3CC[C@@H](OC(=O)NC(C)C)C3)[nH]n2)n1 [Example 2N, (1R,3S)-3-(3-((6-methoxypyrazin-2-yl)amino)-1H-pyrazol-5-yl)cyclopenty1 isopropylcarbamate]	1200 nM	1200 nM	3.7 nM	26 nM	29 nM	41	0.38	(+) (The (+) sign in Table Q signifies desirable increased fold-selectivity of the exemplary compounds over Comparator C)	41	190 fold	11 nM	65 fold	0.49 nM	7.6	53	(+) (The (+) sign in Table Q signifies desirable increased fold-selectivity of the exemplary compounds over Comparator C)	0.49 nM	7.6	53	–	–
Cc1nccc(Nc2cc([C@H]3CC[C@@H](OC(=O)NC(C)C)C3)[nH]n2)n1 [Example 2O, (1R,3S)-3-(3-((2-methylpyrimidin-4-yl)amino)-1H-pyrazol-5-yl)cyclopenty1 isopropylcarbamate]	3900 nM	3900 nM	24 nM	250 nM	70 nM	56	0.31	(+) (The (+) sign in Table Q signifies desirable increased fold-selectivity of the exemplary compounds over Comparator C)	56	78.6 fold	22 nM	37 fold	0.87 nM	28	290	(+) (The (+) sign in Table Q signifies desirable increased fold-selectivity of the exemplary compounds over Comparator C)	0.87 nM	28	290	–	–
CC(C)NC(=O)O[C@@H]1CC[C@H](c2cc(Nc3cncc(C(F)(F)F)n3)n[nH]2)C1 [Example 2R, (1R,3S)-3-(3-((6-(trifluoromethyl)pyrazin-2-yl)amino)-1H-pyrazol-5-yl)cyclopentyl isopropylcarbamate]	170 nM	170 nM	0.4 nM	9 nM	5.6 nM	30	0.63	(+) (The (+) sign in Table Q signifies desirable increased fold-selectivity of the exemplary compounds over Comparator C)	30	982 fold	3.5 nM	320 fold	< 0.1 nM	6.3	140	(+) (The (+) sign in Table Q signifies desirable increased fold-selectivity of the exemplary compounds over Comparator C)	< 0.1 nM	6.3	140	≤ 1 nM	–
Cc1nccnc1Nc1cc([C@H]2CC[C@@H](OC(=O)NC(C)C)C2)[nH]n1 [Example 2T, (1R,3S)-3-(3-((3-methylpyrazin-2-yl)amino)-1H-pyrazol-5-yl)cyclopentyl isopropylcarbamate]	1500 nM	1500 nM	64 nM	150 nM	52 nM	29	2.3	(+) (The (+) sign in Table Q signifies desirable increased fold-selectivity of the exemplary compounds over Comparator C)	29	106 fold	120 nM	37 fold	0.86 nM	74	170	(+) (The (+) sign in Table Q signifies desirable increased fold-selectivity of the exemplary compounds over Comparator C)	0.86 nM	74	170	≤ 1 nM	increased fold-selectivity CDK1/CDK2 over Comparator C ([4]; Table Q): (+) (The (+) sign in Table Q signifies desirable increased fold-selectivity of the exemplary compounds over Comparator C)
Cc1cnc(Nc2cc([C@H]3CC[C@@H](OC(=O)NC(C)C)C3)[nH]n2)c(C)n1 [Example 2V, (1R,3S)-3-(3-((3,5-dimethylpyrazin-2-yl)amino)-1H-pyrazol-5-y1)cyclopentyl isopropylcarbamate]	2500 nM	2500 nM	36 nM	260 nM	110 nM	23	0.88	(+) (The (+) sign in Table Q signifies desirable increased fold-selectivity of the exemplary compounds over Comparator C)	23	50 fold	97 nM	35 fold	0.92 nM	39	280	(+) (The (+) sign in Table Q signifies desirable increased fold-selectivity of the exemplary compounds over Comparator C)	0.92 nM	39	280	≤ 1 nM	increased fold-selectivity CDK1/CDK2 over Comparator C ([4]; Table Q): (+) (The (+) sign in Table Q signifies desirable increased fold-selectivity of the exemplary compounds over Comparator C)

— US20240425478A1, “CYCLOPENTYLPYRAZOLE CDK2 INHIBITORS” (Genentech, Inc., priority 2021, published 2024)
